From patent US7691382B2, “Antiviral polypeptides comprising tandem repeats of APOE 141-149 and variants thereof” (priority 2003, dated 2010)
Peptide text beside a SMILES is read from it.

Experiments:
HSV1 = format: cell-based, Human herpes simplex virus type 1; settings: for efficacy for reducing HSV1 infectivity (in words): Examples 2 and 3
Outline: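 Plaque reduction in Vero monolayers: ~100 pfu HSV1 pre-mixed 10 min at 37 °C with acetylated/amidated peptides in 0.5% FCS medium, inoculated 60–80 min, then carboxymethylcellulose overlay for 22 or 40 h. Plaques counted after fixing and carbol fuchsin staining; IC50 from % of control versus peptide concentration.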

HIV-1 = settings: NP2 glioma cells, peptide 0.1 to 10 micromolar
Protocol: The glioma cell line NP2 over-expressing both CD4 and the appropriate co-receptor (CCR5 or CXCR4) were maintained in DMEM supplemented with 10% FCS. 2×10^4 cells were plated per well of a 48-well plate 24 h prior to infection and grown at 37 C. The cells were then washed, and incubated in DMEM/FCS containing peptide concentrations ranging from 0.1 to 10 micromolar, at 37 C for 30 minutes. 200 focus-forming units of HIV-1 stocks were then added to each well, and the cells incubated at 37 C for a further 2 hours. The cells were then washed twice in PBS and fresh medium replaced. After 3 day's growth the cells were fixed in cold methanol:acetone, and stained in situ for expression of HIV-1 p24 using a monoclonal anti-p24 followed by a secondary anti-mouse beta-galactosidase conjugate. Expression was visualised by X-Gal staining and infectious foci enumerated by light-microscopy.

HIV-1 111B = HIV-1 111B in C8166 T-cells, syncytia and gp120 ELISA; format: cell-based, Human Immunodeficiency Virus; settings: 5 days, read-out: IC50 for inhibiting HIV-1 growth
Protocol: Peptides (prepared as described previously) were diluted in 50 μl aliquots and mixed with T-cells (C8166) at 40,000 cells per well. Next HIV-1 111B was added at a multiplicity of infection (MOI) of 0.01, and the mixture incubated for 5 days at 37° C. Syncytia formation was assessed visually using an inverting microscope, and viral gp120 levels in supernatants assessed by a gp120 ELISA using GNA for antigen capture. 96-well plates coated with 50 ul GNA (Galanthus nivalis) were washed, then treated with 100 μl RPMI (10% foetal calf serum) and left for one hour. After further washing, 25 μl test sample supernatants were added to wells, along with dilutions of infected control samples. After lysis by 3 hr treatment with 0.5% Empigen (detergent used to lyse virus) to all wells, and washing, 50 μl of human anti-HIV sera was added, and plates incubated overnight. After further washing, 50 μl of a 1000× dilution of anti-human Ig peroxidase conjugate was added, and plates incubated at 37° C. for 90 min. After a final wash, 50 ul peroxidase substrate was added to each well, and plates incubated for 10-30 min. Reaction was stopped with 25 μl 2M H2SO4, and A450 measured.

HSV2 clinical isolates = format: cell-based, Human herpes simplex virus type 2
Protocol: Plaque assays were performed. The methodology was as described in previous Examples for HSV1 plaque assays (including usage of Vero cells) except HSV2 clinical isolates (provided by Prof. Anthony Hart of Liverpool University) were employed instead.

| IC50 (HSV2 clinical isolates) | IC50 (HSV1) | SMILES | efficacy for reducing HSV1 infectivity (in words) (HSV1) | anti-HIV activity (in words) (HIV-1) | IC50 (HIV-1 111B) |
| --- | --- | --- | --- | --- | --- |
| < 3.3 µM | 6 µM | CC(=O)N[C@@H](Cc1c[nH]c2ccccc12)C(=O)N[C@@H](CCCNC(=N)N)C(=O)N[C@@H](CCCCN)C(=O)N[C@@H](Cc1c[nH]c2ccccc12)C(=O)N[C@@H](CCCNC(=N)N)C(=O)N[C@@H](CCCCN)C(=O)N[C@@H](CCCNC(=N)N)C(=O)N[C@@H](Cc1c[nH]c2ccccc12)C(=O)N[C@@H](Cc1c[nH]c2ccccc12)C(=O)N[C@@H](CC(C)C)C(=O)N[C@@H](CCCNC(=N)N)C(=O)N[C@@H](CCCCN)C(=O)N[C@@H](CC(C)C)C(=O)N[C@@H](CCCNC(=N)N)C(=O)N[C@@H](CCCCN)C(=O)N[C@@H](CCCNC(=N)N)C(=O)N[C@@H](CC(C)C)C(=O)N[C@@H](CC(C)C)C(N)=O [GIN 34] (Ac-WRKWRKRWWLRKLRKRLL-NH2) | also had efficacy | – | – |
| 6.5 µM | 12.5 µM | CC(=O)N[C@@H](CC(C)C)C(=O)N[C@@H](CCCNC(=N)N)C(=O)N[C@@H](CCCCN)C(=O)N[C@@H](CC(C)C)C(=O)N[C@@H](CCCNC(=N)N)C(=O)N[C@@H](CCCCN)C(=O)N[C@@H](CCCNC(=N)N)C(=O)N[C@@H](CC(C)C)C(=O)N[C@@H](CC(C)C)C(=O)N[C@@H](Cc1c[nH]c2ccccc12)C(=O)N[C@@H](CCCNC(=N)N)C(=O)N[C@@H](CCCCN)C(=O)N[C@@H](Cc1c[nH]c2ccccc12)C(=O)N[C@@H](CCCNC(=N)N)C(=O)N[C@@H](CCCCN)C(=O)N[C@@H](CCCNC(=N)N)C(=O)N[C@@H](Cc1c[nH]c2ccccc12)C(=O)N[C@@H](Cc1c[nH]c2ccccc12)C(N)=O [MU 111] (Ac-LRKLRKRLLWRKWRKRWW-NH2) | – | – | – |
| 16 µM | > 20 µM | CC(=O)N[C@@H](CC(C)C)C(=O)N[C@@H](CCCNC(=N)N)C(=O)N[C@@H](CCCCN)C(=O)N[C@@H](CC(C)C)C(=O)N[C@@H](CCCNC(=N)N)C(=O)N[C@@H](CCCCN)C(=O)N[C@@H](CCCNC(=N)N)C(=O)N[C@@H](CC(C)C)C(=O)N[C@@H](CC(C)C)C(=O)N[C@@H](CC(C)C)C(=O)N[C@@H](CCCNC(=N)N)C(=O)N[C@@H](CCCCN)C(=O)N[C@@H](CC(C)C)C(=O)N[C@@H](CCCNC(=N)N)C(=O)N[C@@H](CCCCN)C(=O)N[C@@H](CCCNC(=N)N)C(=O)N[C@@H](Cc1c[nH]c2ccccc12)C(=O)N[C@@H](Cc1c[nH]c2ccccc12)C(N)=O [MU 112] (Ac-LRKLRKRLLLRKLRKRWW-NH2) | – | – | – |
| 11.8 µM | 18.5 µM | CC(=O)N[C@@H](CC(C)C)C(=O)N[C@@H](CCCNC(=N)N)C(=O)N[C@@H](CCCCN)C(=O)N[C@@H](CC(C)C)C(=O)N[C@@H](CCCNC(=N)N)C(=O)N[C@@H](CCCCN)C(=O)N[C@@H](CCCNC(=N)N)C(=O)N[C@@H](CC(C)C)C(=O)N[C@@H](CC(C)C)C(=O)N[C@@H](Cc1c[nH]c2ccccc12)C(=O)N[C@@H](CCCNC(=N)N)C(=O)N[C@@H](CCCCN)C(=O)N[C@@H](Cc1c[nH]c2ccccc12)C(=O)N[C@@H](CCCNC(=N)N)C(=O)N[C@@H](CCCCN)C(=O)N[C@@H](CCCNC(=N)N)C(=O)N[C@@H](CC(C)C)C(=O)N[C@@H](CC(C)C)C(N)=O [MU 113] (Ac-LRKLRKRLLWRKWRKRLL-NH2) | – | – | – |

Second part, the compound before the results:

| SMILES | IC50 (HSV2 clinical isolates) | IC50 (HSV1) | efficacy for reducing HSV1 infectivity (in words) (HSV1) | anti-HIV activity (in words) (HIV-1) | IC50 (HIV-1 111B) |
| --- | --- | --- | --- | --- | --- |
| CC(=O)N[C@@H](CC(C)C)C(=O)N[C@@H](CCCNC(=N)N)C(=O)N[C@@H](CCCCN)C(=O)N[C@@H](CC(C)C)C(=O)N[C@@H](CCCNC(=N)N)C(=O)N[C@@H](CCCCN)C(=O)N[C@@H](CCCNC(=N)N)C(=O)N[C@@H](CC(C)C)C(=O)N[C@@H](CC(C)C)C(=O)N[C@@H](CC(C)C)C(=O)N[C@@H](CCCNC(=N)N)C(=O)N[C@@H](CCCCN)C(=O)N[C@@H](CC(C)C)C(=O)N[C@@H](CCCNC(=N)N)C(=O)N[C@@H](CCCCN)C(=O)N[C@@H](CCCNC(=N)N)C(=O)N[C@@H](CC(C)C)C(=O)N[C@@H](CC(C)C)C(N)=O [GIN 1p] (Ac-LRKLRKRLLLRKLRKRLL-NH2) | – | – | had anti-HSV-1 properties | no detectable anti-HIV activity | – |
| CC(=O)N[C@@H](Cc1c[nH]c2ccccc12)C(=O)N[C@@H](CCCNC(=N)N)C(=O)N[C@@H](CCCCN)C(=O)N[C@@H](Cc1c[nH]c2ccccc12)C(=O)N[C@@H](CCCNC(=N)N)C(=O)N[C@@H](CCCCN)C(=O)N[C@@H](CCCNC(=N)N)C(=O)N[C@@H](Cc1c[nH]c2ccccc12)C(=O)N[C@@H](CCCNC(=N)N)C(=O)N[C@@H](CCCCN)C(=O)N[C@@H](Cc1c[nH]c2ccccc12)C(=O)N[C@@H](CCCNC(=N)N)C(=O)N[C@@H](CCCCN)C(=O)N[C@@H](CCCNC(=N)N)C(N)=O [GIN 32] (Ac-WRKWRKRWRKWRKR-NH2) | 6.25 µM | 10 µM | also had efficacy | – | 7.5 µM |
| CC(=O)N[C@@H](Cc1c[nH]c2ccccc12)C(=O)N[C@@H](CCCNC(=N)N)C(=O)N[C@@H](CCCCN)C(=O)N[C@@H](Cc1c[nH]c2ccccc12)C(=O)N[C@@H](CCCNC(=N)N)C(=O)N[C@@H](CCCCN)C(=O)N[C@@H](CCCNC(=N)N)C(=O)N[C@@H](Cc1c[nH]c2ccccc12)C(=O)N[C@@H](CCCNC(=N)N)C(=O)N[C@@H](CCCCN)C(=O)N[C@@H](Cc1c[nH]c2ccccc12)C(=O)N[C@@H](CCCNC(=N)N)C(=O)N[C@@H](CCCCN)C(=O)N[C@@H](CCCNC(=N)N)C(=O)N[C@@H](Cc1c[nH]c2ccccc12)C(N)=O [MU 59] (Ac-WRKWRKRWRKWRKRW-NH2) | 10 µM | 9.75 µM | – | – | – |
| CC(=O)N[C@@H](Cc1c[nH]c2ccccc12)C(=O)N[C@@H](CCCNC(=N)N)C(=O)N[C@@H](CCCCN)C(=O)N[C@@H](Cc1c[nH]c2ccccc12)C(=O)N[C@@H](CCCNC(=N)N)C(=O)N[C@@H](CCCCN)C(=O)N[C@@H](CCCNC(=N)N)C(=O)N[C@@H](Cc1c[nH]c2ccccc12)C(=O)N[C@@H](Cc1c[nH]c2ccccc12)C(=O)N[C@@H](CCCNC(=N)N)C(=O)N[C@@H](Cc1c[nH]c2ccccc12)C(=O)N[C@@H](CCCNC(=N)N)C(=O)N[C@@H](CCCCN)C(=O)N[C@@H](Cc1c[nH]c2ccccc12)C(=O)N[C@@H](CCCNC(=N)N)C(=O)N[C@@H](CCCCN)C(=O)N[C@@H](CCCNC(=N)N)C(=O)N[C@@H](Cc1c[nH]c2ccccc12)C(=O)N[C@@H](Cc1c[nH]c2ccccc12)C(=O)N[C@@H](CCCNC(=N)N)C(N)=O [MU 83] (Ac-WRKWRKRWWRWRKWRKRWWR-NH2) | < 3.3 µM | 2.5 µM | – | – | – |
| CC(=O)N[C@@H](Cc1c[nH]c2ccccc12)C(=O)N[C@@H](CCCNC(=N)N)C(=O)N[C@@H](CCCCN)C(=O)N[C@@H](Cc1c[nH]c2ccccc12)C(=O)N[C@@H](CCCNC(=N)N)C(=O)N[C@@H](CCCCN)C(=O)N[C@@H](CCCNC(=N)N)C(=O)N[C@@H](CC(C)C)C(=O)N[C@@H](CC(C)C)C(=O)N[C@@H](CC(C)C)C(=O)N[C@@H](CCCNC(=N)N)C(=O)N[C@@H](CCCCN)C(=O)N[C@@H](CC(C)C)C(=O)N[C@@H](CCCNC(=N)N)C(=O)N[C@@H](CCCCN)C(=O)N[C@@H](CCCNC(=N)N)C(=O)N[C@@H](CC(C)C)C(=O)N[C@@H](CC(C)C)C(N)=O [MU 114] (Ac-WRKWRKRLLLRKLRKRLL-NH2) | 9 µM | 16 µM | – | – | – |
